Measurements as given in patent publication US9610264B2, “Compounds for the treatment and prevention of retroviral infections” (KFLP Biotech, LLC, priority 2012, dated 2017).

What was measured:
HIV-1-LAI strain = experiment: Antiviral assay in PHA-P-activated PBMC, RT activity in supernatants; assay type: cell-based; conditions: day 7 RT activity
Method: Phytohemagglutinin (PHA)-P-activated PBMC were infected with the reference lymphotropic HIV-1-LAI strain (Wain-Hobson et al., Science, vol. 252, no. 5008, pp. 961-965 (1991)). This virus was amplified in vitro with PHA-P-activated blood mononuclear cells. Viral stocks were titrated using PHA-P-activated PBMC, and 50% tissue culture infectious doses (TCID50) was calculated using Karber's formula. PBMC were pretreated for 30 min by two concentrations of each molecule and infected with 125 TCID50 of this HIV-1 strain. AZT and T20 were used as reference anti-HIV molecule. Molecules were maintained throughout the culture, and cell supernatants were collected at day 7 post-infection and stored at −20° C. Viral replication was measured by quantifying reverse transcriptase (RT) activity in these cell culture supernatants using the Lenti RT activity kit (Cavidi). In parallel, cytotoxicity was evaluated on day 7 in uninfected PHA-P-activated PBMC using the colorimetric methyl-tetrazolium salt assay (MTS/PMS; Promega). Experiments were performed in triplicate and the inhibition of viral replication of the compounds was calculated using SoftMaxPro software (Molecular Devices Inc. CA, USA).
Dilutions in Cell Culture Medium Containing 0.1% DMSO (Final Concentration)

[1] = biological target: binding of HIV associated glycoprotein gp120 and the integrin α4β7 (Homo sapiens (Human), UniProt P13612+P26010); experiment: ELISA assay of gp120 binding to integrin α4β7; parameters: species or system human (α4β7); HIV-1 ADA strain (gp120); conditions: inhibition of gp120/α4β7 binding, triplicate with two anti-gp120 antibodies, read-out: IC50 a4b7
binding of HIV associated glycoprotein gp120 and the integrin α4β7, sequence (P13612 whole entry, looked up): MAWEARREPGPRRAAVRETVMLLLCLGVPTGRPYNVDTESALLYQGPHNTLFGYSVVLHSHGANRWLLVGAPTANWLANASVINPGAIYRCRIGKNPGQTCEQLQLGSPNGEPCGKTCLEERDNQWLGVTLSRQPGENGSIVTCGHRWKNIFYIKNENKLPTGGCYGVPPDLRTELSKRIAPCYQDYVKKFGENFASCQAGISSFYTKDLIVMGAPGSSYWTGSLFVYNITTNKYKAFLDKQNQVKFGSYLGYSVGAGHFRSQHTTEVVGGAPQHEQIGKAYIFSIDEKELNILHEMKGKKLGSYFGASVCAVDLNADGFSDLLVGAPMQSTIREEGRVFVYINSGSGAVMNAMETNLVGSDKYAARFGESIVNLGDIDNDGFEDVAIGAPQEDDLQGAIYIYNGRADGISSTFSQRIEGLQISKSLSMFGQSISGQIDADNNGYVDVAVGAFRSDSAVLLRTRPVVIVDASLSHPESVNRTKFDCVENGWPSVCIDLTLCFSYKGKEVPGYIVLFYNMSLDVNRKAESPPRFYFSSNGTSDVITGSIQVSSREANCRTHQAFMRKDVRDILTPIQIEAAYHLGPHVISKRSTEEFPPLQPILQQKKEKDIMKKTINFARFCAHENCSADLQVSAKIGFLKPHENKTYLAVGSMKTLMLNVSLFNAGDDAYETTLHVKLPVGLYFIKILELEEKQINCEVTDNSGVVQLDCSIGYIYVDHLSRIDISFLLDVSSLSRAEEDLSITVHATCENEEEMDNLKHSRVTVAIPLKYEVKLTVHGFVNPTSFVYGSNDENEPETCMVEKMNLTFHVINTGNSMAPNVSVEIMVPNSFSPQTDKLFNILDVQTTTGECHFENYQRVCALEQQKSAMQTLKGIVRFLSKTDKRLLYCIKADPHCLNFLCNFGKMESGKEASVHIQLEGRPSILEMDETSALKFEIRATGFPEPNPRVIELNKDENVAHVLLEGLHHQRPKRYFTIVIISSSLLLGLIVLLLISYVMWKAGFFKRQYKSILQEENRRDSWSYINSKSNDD
binding of HIV associated glycoprotein gp120 and the integrin α4β7, sequence (P26010 whole entry, looked up): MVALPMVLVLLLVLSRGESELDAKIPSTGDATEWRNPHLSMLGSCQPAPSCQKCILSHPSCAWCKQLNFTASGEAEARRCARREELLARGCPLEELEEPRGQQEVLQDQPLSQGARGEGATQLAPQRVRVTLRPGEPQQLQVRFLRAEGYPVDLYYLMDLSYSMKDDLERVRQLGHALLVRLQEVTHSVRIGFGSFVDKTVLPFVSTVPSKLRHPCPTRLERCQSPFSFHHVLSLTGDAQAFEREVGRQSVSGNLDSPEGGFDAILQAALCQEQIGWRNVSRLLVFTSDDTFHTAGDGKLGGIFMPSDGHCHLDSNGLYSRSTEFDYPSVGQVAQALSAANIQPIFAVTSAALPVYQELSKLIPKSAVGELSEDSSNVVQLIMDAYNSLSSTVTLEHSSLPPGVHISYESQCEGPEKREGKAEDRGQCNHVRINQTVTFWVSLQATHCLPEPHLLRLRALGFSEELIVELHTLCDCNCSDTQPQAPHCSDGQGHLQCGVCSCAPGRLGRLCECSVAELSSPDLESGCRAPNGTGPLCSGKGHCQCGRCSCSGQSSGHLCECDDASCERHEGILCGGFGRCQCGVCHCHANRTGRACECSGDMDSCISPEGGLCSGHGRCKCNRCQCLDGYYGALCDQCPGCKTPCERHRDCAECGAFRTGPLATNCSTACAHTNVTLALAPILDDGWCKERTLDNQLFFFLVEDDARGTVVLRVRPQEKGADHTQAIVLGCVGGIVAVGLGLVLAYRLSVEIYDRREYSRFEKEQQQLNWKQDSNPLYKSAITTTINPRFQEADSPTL
Description: A sandwich assay was developed to screen for compounds that inhibit the binding of a4b7 to gp120. Without inhibitors, gp120 and a4b7 bind and this complex can be identified by addition of a mouse anti-gp120 mAb (step 3). This a4b7*gp120anti-gp120 mAb complex is then sequestered on the bottom surface of a 96 welled-plate coated with an anti-mouse secondary mAb (step 4). The complex is then detected by addition of a biotinylated primary mAb against a4b7 (step 5) and detected using an HRP-avidin (step 6). A positive binding event is identified by the presence of HPR activity within each well. The addition of an inhibitor (step 2) blocks the binding between gp120 and a4b7 leading to a lack or reduction of HRP activity as shown in steps 2-5 at the bottom of the figure.
Step 1: Prepare the antigen plate • a. Prepare a PBS stock solution containing 1 μM gp120 and 1 μM α4β7 • b. Add a 200 μL aliquot to each well of the antigen plate.
Step 2: Add the inhibitor. • a. Add 20 μL of a 10× stock of the inhibitor in PBS pH 7.2 containing 1% DMSO • b. Incubate at 4° C. for 6 h with shaking. This delivers the antigen plate.
Step 3: Prepare the binding plate. • a. Aspirate each well of the binding plate • b. Wash three times with 200 μL of wash buffer (PBS pH 7.2, containing 0.05% Tween 20). • c. Add 100 μL of a 0.5 μg/mL stock of the mouse anti-gp120 mAb in PBS pH 7.2 • d. Shake for 1 h at 23° C.
Step 4: Sequester the gp120*α4β7 complex. • a. Aspirate each well of the binding plate. • b. Wash three times with 200 μL of wash buffer. • c. Transfer the contents of the antigen plate to the corresponding wells in the binding plate. • d. Shake for 1 h at 23° C.
Step 5: Develop the binding plate. • a. Aspirate each well of the binding plate. • b. Wash three times with 200 μL of wash buffer. • c. Add 100 μL of a 0.1 μg/mL of the rat anti-α4β7 mAb. • d. Shake for 1 h at 37° C. • e. Aspirate each well of the binding plate. • f. Wash three times with 200 μL of wash buffer. • g. Add 100 μL of 0.2 μg/mL solution of the HRP-conjugated strepavidin • h. Shake for 1 h at 37° C. • i. Aspirate each well of the binding plate. • j. Wash three times with 200 μL of wash buffer. • k. Develop using QuantaBlu fluorogenic peroxidase substrate (ThermoScientific) • l. Evaluate the fluorescence output on a HTS7000 plate reader (Perkin Elmer).
The ELISA assay was applied to screen the compounds in the table, below, to further characterize their activity against the binding of HIV associated glycoprotein gp120 and the integrin α4β7.
The five-step assay developed was applied to screen the compounds in the table below. […] The experiments were run in triplicate using two antibodies against gp120.

[2] = system: HIV-1 R9 (CXCR4-tropic strain); experiment: Infectivity assay in HeLa reporter cell line (HeLa-CD4-Bgal); assay type: cell-based; conditions: HeLa reporter cells, HIV-1 R9, 36 h
Method: FIG. 2: Experimental outline to evaluate HIV infectivity in a HeLa reporter cell line HIV-1 particles are produced in 293T cells transfected with R9 HIV DNA in the absence of test compounds. Particles are collected, titrated by measuring the amount of p24 antigen and frozen until their use. In the infectivity assay HeLa-CD4-Bgal cells are preincubated for 20 min in the absence or presence of test compounds, and the viral particles are added. Infectivity is monitored with a beta-galactosidase enzymatic reaction 36 hours after infection. Test compounds and virus are left with the cells throughout the entire infection period.
Compounds were evaluated with a HeLa reporter cell line containing the bacterial b-galactosidase gene inserted in the cell chromosome under control of the viral LTR. […] HIV-1 R9 (CXCR4-tropic strain) was used in these experiments to challenge cells. Viruses were first produced by transfection of 293T cells with a plasmid DNA expressing HIV-1. Viral particles were harvested and frozen until use. Infectivity assays were performed incubating cells in the absence or presence of compounds for 20 min before addition of virus. Upon infection, virus and compounds were left with the cells for the entire period of infection (36 h). At that time the extent of infection was evaluated using a luminescent substrate of Bgal. FIG. 2 depicts the experimental outline used to evaluate the anti-HIV activity of lead compounds. Controls with known ARVs include AZT, a reverse-transcriptase inhibitor (RTI), and the HIV integrase inhibitor raltegravir. Controls with vehicle alone are also included

Compound `Cc1cn([C@H]2C[C@H](N=[N+]=[N-])[C@@H](CO)O2)c(=O)[nH]c1=O` [AZT, Zidovudine] has an inhibition at 0.00032 µM (HIV-1-LAI strain; Human immunodeficiency virus 1, 168 h, 0.32 nM, read-out: inhibition of viral replication) of 16%, an inhibition at 0.0016 µM (HIV-1-LAI strain; Human immunodeficiency virus 1, 168 h, 1.6 nM, read-out: inhibition of viral replication) of 59% and an inhibition at 0.008 µM (HIV-1-LAI strain; Human immunodeficiency virus 1, 168 h, 8 nM, read-out: inhibition of viral replication) of 95%. The inhibition at 0.04 µM (HIV-1-LAI strain; Human immunodeficiency virus 1, 168 h, 40 nM, read-out: inhibition of viral replication) was 100%, the inhibition at 0.2 µM (HIV-1-LAI strain; Human immunodeficiency virus 1, 168 h, 200 nM, read-out: inhibition of viral replication) was 100% and the inhibition at 1 µM (HIV-1-LAI strain; Human immunodeficiency virus 1, 168 h, 1000 nM, read-out: inhibition of viral replication) was 100%. The ED50 (HIV-1-LAI strain) was 1.3 nM, the ED70 (HIV-1-LAI strain) was 2.5 nM and the ED90 (HIV-1-LAI strain) was 6.6 nM.

`O=C(CCc1ccccc1)Nc1ccccc1C(=O)NCc1ccccc1` [Compound 1] was tested, and the IC50 [1] was 0.33 nM.

In the case of `O=C(Cc1ccc(F)cc1)Nc1ccccc1C(=O)NCc1ccccc1` [Compound 2], the IC50 [1] is reported as 0.89 nM, the “inhibition of viral replication” value (HIV-1-LAI strain; 3.2 nM) is reported as 16% ± 4^ and the “inhibition of viral replication” value (HIV-1-LAI strain; 16 nM) is reported as −6% ± 22^. The “inhibition of viral replication” value (HIV-1-LAI strain; 80 nM) was 4% ± 8, the “inhibition of viral replication” value (HIV-1-LAI strain; 400 nM) was 6% ± 16 and the “inhibition of viral replication” value (HIV-1-LAI strain; 2000 nM) was 22% ± 3^. For the same compound, the “inhibition of viral replication” value (HIV-1-LAI strain; 10000 nM) was 87% ± 9^, the ED50 (HIV-1-LAI strain) was 5590 ± 441 nM and the ED70 (HIV-1-LAI strain) was 8021 ± 710 nM. For the same compound, the ED90 (HIV-1-LAI strain) was 9826 ± 246 nM, the “Inhibition of HIV infectivity in %” value ([2]; 0.008 μM) was 69.28% and the “Inhibition of HIV infectivity in %” value ([2]; 0.04 μM) was 51.94%. The “Inhibition of HIV infectivity in %” value ([2]; 0.2 μM) was 62.3%, the “Inhibition of HIV infectivity in %” value ([2]; 1 μM) was 60.66% and the “Inhibition of HIV infectivity in %” value ([2]; 5 μM) was 13.81%. The “Inhibition of HIV infectivity in %” value ([2]; 25 μM) was 2.76%, the “Inhibition of HIV infectivity in %” value ([2]; 125 μM) was 4.1% and the EC50 [2] was 3400 nM. It also gave an EC90 [2] of 30600 nM.

With `Cc1ccc(CNC(=O)c2ccccc2NC(=O)CN2CCc3ccccc32)cc1` [Compound 3] the IC50 [1] was 19.2 nM, the “Inhibition of HIV infectivity in %” value ([2]; 0.008 μM) was 67.64% and the “Inhibition of HIV infectivity in %” value ([2]; 0.04 μM) was 58.63%. The “Inhibition of HIV infectivity in %” value ([2]; 0.2 μM) was 61.6%, the “Inhibition of HIV infectivity in %” value ([2]; 1 μM) was 42.22% and the “Inhibition of HIV infectivity in %” value ([2]; 5 μM) was 12.81%. For the same compound, the “Inhibition of HIV infectivity in %” value ([2]; 25 μM) was 2.39%, the “Inhibition of HIV infectivity in %” value ([2]; 125 μM) was 0.19% and the EC50 [2] was 1690 nM. For the same compound, the EC90 [2] was 15200 nM.

In the case of `O=C(CN1CCN(Cc2ccsc2)CC1)Nc1ccccc1C(=O)NCc1ccccc1` [Compound 4], the IC50 [1] is reported as 0.27 nM.

Work on `CC(NC(=O)c1ccccc1NC(=O)CN1C(=O)C(=O)N(Cc2ccccc2)C1=O)c1ccccc1` (stereo not drawn) [Compound 5] yielded an IC50 [1] of 0.64 nM.

`Cc1ccc(CNC(=O)c2ccccc2NC(=O)CN2CCN(C(C)C(=O)NC3CC3)CC2)cc1` (stereo not drawn) [Compound 6] showed an IC50 [1] of 0.61 nM.

`CC1(c2ccc(F)cc2)NC(=O)N(CC(=O)Nc2ccccc2C(=O)NCc2ccccc2)C1=O` (stereo not drawn) [Compound 7] showed an IC50 [1] of 0.46 nM.

`CC1CCCCN1CC(=O)Nc1ccccc1C(=O)NCc1ccccc1` (stereo not drawn) [Compound 9] showed an IC50 [1] of 1.23 nM.

`O=C(Nc1ccccc1C(=O)NCc1ccccc1)c1cccc([N+](=O)[O-])c1` [Compound 10] gave an IC50 [1] of 1.53 nM.

For `CCC(=O)Nc1cccc(C(=O)Nc2ccccc2C(=O)NCc2ccc(C)cc2)c1` [Compound 12], the IC50 [1] was 2.19 nM.

`CC(NC(=O)c1ccccc1NC(=O)CN1CCc2ccccc21)c1ccccc1` (stereo not drawn) [Compound 13] was tested, and the IC50 [1] was 2.45 nM.

`CC(NC(=O)c1ccccc1NC(=O)CN1C(=O)NC(Cc2ccccc2)C1=O)c1ccccc1` (stereo not drawn) [Compound 15] showed an IC50 [1] of 2.8 nM.

For enfuvirtide, the “inhibition of viral replication” value (HIV-1-LAI strain; 0.32 nM) was −9% ± 3, the “inhibition of viral replication” value (HIV-1-LAI strain; 1.6 nM) was 5% ± 15 and the “inhibition of viral replication” value (HIV-1-LAI strain; 8 nM) was −13% ± 4. For the same compound, the “inhibition of viral replication” value (HIV-1-LAI strain; 40 nM) was 100% ± 0, the “inhibition of viral replication” value (HIV-1-LAI strain; 200 nM) was 100% ± 0 and the “inhibition of viral replication” value (HIV-1-LAI strain; 1000 nM) was 100% ± 0. For the same compound, the ED50 (HIV-1-LAI strain) was 28.9 nM, the ED70 (HIV-1-LAI strain) was 30 nM and the ED90 (HIV-1-LAI strain) was 31.7 nM.
